Measurements from patent US20010039295A1, “N,N'-bis(2-hydroxybenzyl)-ethylenediamine-N,N'-diacetic acid in iron chelating therapy” (priority 1999, published 2001).
Structures can show the parent of a compound that is named as a salt.

Legend:
[1] = tested on: iron loaded Cebus apella monkey; details: Cebus apella monkey screen, DFOM subcutaneous (Bergeron et al. 1993; Peter et al. 1994); cited from earlier work
[2] = typical, parenteral therapy; cited from earlier work
[3] = IV bolus, conscious rats, 200-300 mg/kg
[4] = tested on: iron loaded Cebus apella monkey; assay: Iron-balance study (iron clearing efficiency) in iron-loaded Cebus apella monkeys
[5] = Impact of IV chelator on blood pressure and heart rate in normotensive rats; assay type: in vivo, Sprague Dawley rats
Protocol: Owing to the profound impact that DFO administered IV can have on blood pressure and cardiac function (Whitten, D. F.; Gibson, G. W.; Good, M. H.; Goodwin, J. F.; Brough, A. J. Studies in Acute Iron Poisoning. I. Desferrioxamine in the Treatment of Acute Iron Poisoning: Clinical Observations, Experimental Studies, and Theoretical Considerations. Pediatrics 1965, 36, 322-335), the manufacter recommends that the drug be given by this route at doses not to exceed 15 mg/kg/h (22 μmol/kg/h). In addition, patients suffering from acute iron toxicity should be given DFO IV only under circumstances of cardiovascular collapse, and even then at doses not to exceed 15 mg/kg/h for the first 1000 mg. Subject IV dosing, if needed, must be at a slower rate not to exceed 125 mg/h. Upon consideration of this, this example compares the impact of DFO and NaHBED administered IV on blood pressure and heart rate in normotensive rodents. The chelators were administered at a dose of 300 μmol/kg in a 0.5-ml volume either by IV bolus (n=5 for both drugs) or by IV infusion over a 20-min period (n=5 for NaHBED, n=4 for DFO) in accordance with the following procedure.
The basic procedure has been described in an earlier publication (Bergeron, R. J.; Wiegand, J.; Sninsky, C. A.; Katovich, M. J. The Impact of Polyamine Analogues on the Blood Pressure of Normotensive and Hypertensive Rats. Clin. Exp. Hypertension 1995, 17, 1197-1217). Briefly, normotensive adult male Sprague Dawley rats (400 g) were anesthetized with sodium pentobarbital (55 mg/kg IP). After the neck and shoulder areas were prepared for surgery, an incision was made into the neck area. The proximal end of the carotid artery was tied off with 3-0 silk; the other end was clamped. Once a piece of PE-50 tubing was inserted approximately 3 cm into the artery and tied into place; the tubing was skin tunneled to the shoulder area. The jugular vein was cannulated using a similar procedure. Both of the tubings were flushed with heparin (100 U/ml); a stylet was inserted.
Approximately 24 h after the surgery, the animals were placed into individual cages and were connected to a blood pressure transducer (ADInstrurnents, Inc., Milford, MA) via the carotid catheter. […]
After a ½-h stabilization period, 0.5 ml of saline was administered as an IV bolus via the jugular vein catheter, and the blood pressure and heart rate were monitored for 5 min. […] The blood pressure and heart rate readings were taken for 1 h post-drug, during which the animals were unrestrained.
Rats receiving the drug as a 20-min IV infusion (n=5 for HBED, n=4 for DFO) were allowed to acclimate as above. […] Blood pressure and heart rate were monitored during the infusion and for one hour thereafter.

[6] = given orally to human patients; cited from earlier work
[7] = IV push, single dose 75 μmol/kg
[8] = 300 μmol/kg, 20-min IV infusion

## CC(=O)N(O)CCCCCNC(=O)CCC(=O)N(O)CCCCCNC(=O)CCC(=O)N(O)CCCCCN [DFO, deferoxamine B]
[1]
  activity compared with HBED or its dimethyl ester given orally: significantly higher activity
[2]
  share of the compound administered that binds iron: ≤ 5%

## O=C(O)CN(CCN(CC(=O)O)Cc1ccccc1O)Cc1ccccc1O [HBED monosodium salt, N,N′-bis(2-hydroxybenzyl)-ethylenediamine-N,N′-diacetic acid]
[3]
  side-effects: no apparent side-effects
[4]; IV push 75 μmol/kg vs subcutaneous DFOM
  net iron excretion relative to similar doses of subcutaneous DFOM: nearly three times
[4]; [7]
  share of excreted iron in the stool: 70%
  share of excreted iron in the urine: 30%
[5]; 300 μmol/kg IV bolus
  effect on blood pressure: no effect
  effect on heart rate: no effect
[5]; [8]
  effect on blood pressure: no effect
  effect on heart rate: no effect

## O=C(O)CN(CCN(CC(=O)O)Cc1ccccc1O)Cc1ccccc1O [HBED, N,N′-bis(2-hydroxybenzyl)-ethylenediamine-N,N′-diacetic acid]
[6]
  iron excretion level: ineffective for the treatment of iron overload
